Experimental findings from article PMC9927415, “Tyrosine Kinase Inhibitors Display Potent Activity against Cryptosporidium parvum” (Microbiology Spectrum, 2022) are described below.

Common to all, as to assay: KINOMEscan competitive binding, whole panel
The target in assay [1] is T1, panel of 203 kinases (Homo sapiens, UniProt O95819).
T1 construct: purchased DiscoverX (KINOMEscan)
The conditions noted are these: 10 µM, n=1; kinase MAP4K4; read-out: Percent inhibition MAP4K4. A digest of the protocol:
(§1)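 This competitive binding format measures displacement of T7 phage-tagged kinases from an immobilized ATP-site ligand by the test compound; values are percentage inhibition.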

Assay [2] concerns the target T2, panel of 203 kinases (Homo sapiens, UniProt P29323).
T2 construct: purchased DiscoverX (KINOMEscan)
T2 sequence (P29323 19-1055): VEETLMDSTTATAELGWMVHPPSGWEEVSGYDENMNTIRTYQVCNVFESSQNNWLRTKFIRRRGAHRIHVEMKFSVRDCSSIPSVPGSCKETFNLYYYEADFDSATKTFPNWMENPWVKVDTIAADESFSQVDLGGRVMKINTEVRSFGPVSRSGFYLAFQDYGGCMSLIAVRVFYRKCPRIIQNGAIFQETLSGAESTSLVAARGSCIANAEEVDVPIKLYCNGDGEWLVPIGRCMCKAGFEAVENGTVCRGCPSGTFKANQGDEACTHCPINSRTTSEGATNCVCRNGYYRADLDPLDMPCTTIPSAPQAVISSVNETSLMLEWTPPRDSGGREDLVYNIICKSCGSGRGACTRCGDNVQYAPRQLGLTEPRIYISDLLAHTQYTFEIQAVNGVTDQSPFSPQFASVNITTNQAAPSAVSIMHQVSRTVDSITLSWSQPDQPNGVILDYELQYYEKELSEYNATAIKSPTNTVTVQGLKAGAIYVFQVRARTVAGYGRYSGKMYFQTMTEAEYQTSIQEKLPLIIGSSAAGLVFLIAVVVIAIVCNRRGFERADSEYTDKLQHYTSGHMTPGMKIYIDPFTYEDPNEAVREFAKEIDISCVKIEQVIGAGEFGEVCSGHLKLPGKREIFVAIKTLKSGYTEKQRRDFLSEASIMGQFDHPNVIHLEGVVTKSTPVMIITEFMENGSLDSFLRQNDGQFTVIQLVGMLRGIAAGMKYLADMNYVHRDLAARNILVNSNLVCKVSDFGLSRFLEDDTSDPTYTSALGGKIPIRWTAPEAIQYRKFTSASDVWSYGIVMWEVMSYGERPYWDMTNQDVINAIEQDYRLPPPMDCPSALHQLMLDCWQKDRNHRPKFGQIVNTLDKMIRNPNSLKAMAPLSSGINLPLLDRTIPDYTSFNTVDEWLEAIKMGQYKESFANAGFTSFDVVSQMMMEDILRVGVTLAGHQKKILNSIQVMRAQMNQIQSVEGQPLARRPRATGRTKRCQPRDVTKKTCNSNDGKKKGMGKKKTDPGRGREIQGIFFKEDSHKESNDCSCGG
To be noted: 10 µM, n=1; kinase EPHB2; read-out: Percent inhibition EPHB2. A digest of the protocol: as §1

The target of assay [3] is T3, panel of 203 kinases (Homo sapiens, UniProt P31751).
T3 construct: purchased DiscoverX (KINOMEscan)
To be noted: 10 µM, n=1; kinase AKT2; read-out: Percent inhibition AKT2. A digest of the protocol:
as §1

The target of assay [4] is T4, panel of 203 kinases (Homo sapiens, UniProt Q13188).
T4 construct: purchased DiscoverX (KINOMEscan)
T4 sequence (Q13188 1-491): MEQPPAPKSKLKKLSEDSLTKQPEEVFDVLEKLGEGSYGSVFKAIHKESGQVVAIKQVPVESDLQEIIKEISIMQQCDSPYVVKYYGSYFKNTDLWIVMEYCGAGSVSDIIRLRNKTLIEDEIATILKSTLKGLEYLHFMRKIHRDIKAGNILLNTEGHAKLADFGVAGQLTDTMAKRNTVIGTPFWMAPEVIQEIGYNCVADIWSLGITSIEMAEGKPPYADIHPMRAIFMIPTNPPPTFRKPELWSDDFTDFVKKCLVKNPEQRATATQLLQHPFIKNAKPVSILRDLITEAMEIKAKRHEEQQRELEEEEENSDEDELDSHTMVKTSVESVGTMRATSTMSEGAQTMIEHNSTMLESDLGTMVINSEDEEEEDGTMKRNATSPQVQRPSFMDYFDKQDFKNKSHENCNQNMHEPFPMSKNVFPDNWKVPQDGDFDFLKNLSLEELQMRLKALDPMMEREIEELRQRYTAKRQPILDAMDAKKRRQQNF
The conditions noted are these: 10 µM, n=1; kinase MST2; read-out: Percent inhibition MST2. The method in brief: as §1

Assay [5] has as its target T5, panel of 203 kinases (Homo sapiens, UniProt Q9UF33).
T5 construct: purchased DiscoverX (KINOMEscan)
T5 sequence (Q9UF33 23-1036): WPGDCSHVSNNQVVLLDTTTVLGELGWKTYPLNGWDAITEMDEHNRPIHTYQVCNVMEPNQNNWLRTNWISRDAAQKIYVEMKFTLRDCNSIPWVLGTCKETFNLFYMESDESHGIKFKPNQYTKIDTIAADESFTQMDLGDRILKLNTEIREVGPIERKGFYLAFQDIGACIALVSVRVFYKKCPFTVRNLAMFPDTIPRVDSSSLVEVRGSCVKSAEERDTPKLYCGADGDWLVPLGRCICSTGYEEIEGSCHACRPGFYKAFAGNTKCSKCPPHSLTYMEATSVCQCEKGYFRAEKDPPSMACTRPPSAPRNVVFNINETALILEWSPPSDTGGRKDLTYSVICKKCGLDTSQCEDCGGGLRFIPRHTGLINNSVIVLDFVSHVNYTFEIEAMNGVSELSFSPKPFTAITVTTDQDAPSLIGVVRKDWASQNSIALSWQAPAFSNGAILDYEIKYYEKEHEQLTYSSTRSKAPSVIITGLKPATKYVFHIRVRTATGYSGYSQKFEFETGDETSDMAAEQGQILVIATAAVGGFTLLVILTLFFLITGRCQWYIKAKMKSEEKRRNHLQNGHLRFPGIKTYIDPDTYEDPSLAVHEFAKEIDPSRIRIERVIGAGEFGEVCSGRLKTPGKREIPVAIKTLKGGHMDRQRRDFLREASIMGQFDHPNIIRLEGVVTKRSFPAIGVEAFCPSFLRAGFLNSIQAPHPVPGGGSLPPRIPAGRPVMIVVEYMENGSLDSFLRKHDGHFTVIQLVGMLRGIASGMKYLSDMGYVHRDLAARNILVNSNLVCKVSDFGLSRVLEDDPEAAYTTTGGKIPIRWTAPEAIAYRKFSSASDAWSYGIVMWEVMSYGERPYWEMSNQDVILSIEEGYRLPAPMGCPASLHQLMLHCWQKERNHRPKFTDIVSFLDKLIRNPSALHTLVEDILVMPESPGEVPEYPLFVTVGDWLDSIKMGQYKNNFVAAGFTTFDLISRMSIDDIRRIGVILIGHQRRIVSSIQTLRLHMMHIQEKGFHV
The conditions noted are these: 10 µM, n=1; kinase EPHA6; read-out: Percent inhibition EPHA6. A digest of the protocol: as §1

T3 sequence (P31751 whole entry): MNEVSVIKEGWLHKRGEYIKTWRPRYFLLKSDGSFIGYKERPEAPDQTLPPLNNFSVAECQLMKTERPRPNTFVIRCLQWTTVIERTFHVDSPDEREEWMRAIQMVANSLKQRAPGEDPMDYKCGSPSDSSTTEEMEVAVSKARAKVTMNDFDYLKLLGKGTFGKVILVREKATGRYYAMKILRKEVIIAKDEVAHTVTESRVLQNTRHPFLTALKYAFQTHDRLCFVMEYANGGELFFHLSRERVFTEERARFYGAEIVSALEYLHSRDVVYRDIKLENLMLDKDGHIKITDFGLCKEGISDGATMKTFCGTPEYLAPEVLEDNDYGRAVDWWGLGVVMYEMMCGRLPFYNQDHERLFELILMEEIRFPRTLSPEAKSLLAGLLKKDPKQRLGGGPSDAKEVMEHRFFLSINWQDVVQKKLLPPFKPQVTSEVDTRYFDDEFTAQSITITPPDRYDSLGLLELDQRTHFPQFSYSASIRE
T1 sequence (O95819 whole entry): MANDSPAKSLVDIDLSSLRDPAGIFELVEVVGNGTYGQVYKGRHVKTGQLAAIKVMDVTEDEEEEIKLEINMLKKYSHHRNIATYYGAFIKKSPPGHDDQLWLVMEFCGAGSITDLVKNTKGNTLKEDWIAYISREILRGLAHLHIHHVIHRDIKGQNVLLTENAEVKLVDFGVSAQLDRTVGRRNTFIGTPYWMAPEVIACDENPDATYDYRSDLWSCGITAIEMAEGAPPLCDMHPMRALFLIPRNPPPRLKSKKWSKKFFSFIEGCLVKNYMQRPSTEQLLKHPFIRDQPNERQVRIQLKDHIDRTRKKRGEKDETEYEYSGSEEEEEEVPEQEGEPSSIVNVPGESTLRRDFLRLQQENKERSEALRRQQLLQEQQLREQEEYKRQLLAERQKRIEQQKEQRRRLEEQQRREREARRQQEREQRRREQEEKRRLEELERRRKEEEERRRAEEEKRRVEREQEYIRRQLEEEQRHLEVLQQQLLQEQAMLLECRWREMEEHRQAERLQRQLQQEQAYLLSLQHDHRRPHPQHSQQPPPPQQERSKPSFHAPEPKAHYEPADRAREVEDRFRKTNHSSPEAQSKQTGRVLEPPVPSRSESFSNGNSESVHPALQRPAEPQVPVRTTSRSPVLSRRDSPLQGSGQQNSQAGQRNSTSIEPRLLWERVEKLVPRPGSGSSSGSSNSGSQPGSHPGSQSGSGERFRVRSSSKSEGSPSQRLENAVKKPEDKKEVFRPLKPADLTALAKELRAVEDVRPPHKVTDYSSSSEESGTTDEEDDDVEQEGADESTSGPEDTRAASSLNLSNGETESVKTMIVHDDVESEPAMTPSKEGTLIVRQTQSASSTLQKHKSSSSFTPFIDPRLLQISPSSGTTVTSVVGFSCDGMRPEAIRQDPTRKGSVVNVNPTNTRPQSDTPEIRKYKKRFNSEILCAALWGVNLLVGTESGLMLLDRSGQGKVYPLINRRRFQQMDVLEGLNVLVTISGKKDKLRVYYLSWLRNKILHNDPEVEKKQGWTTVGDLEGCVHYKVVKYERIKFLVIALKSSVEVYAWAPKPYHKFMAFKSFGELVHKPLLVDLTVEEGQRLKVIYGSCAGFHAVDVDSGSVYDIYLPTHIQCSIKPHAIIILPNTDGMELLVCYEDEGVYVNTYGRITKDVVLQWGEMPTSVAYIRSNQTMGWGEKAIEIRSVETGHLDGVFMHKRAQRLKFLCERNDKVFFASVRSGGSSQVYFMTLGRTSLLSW

With `Cc1ccc(O)cc1Nc1ccnc(Nc2cccc(C(N)=O)c2)n1` [Compound 3], the inhibition at 10 µM at panel of 203 kinases [1] is 98.2%; at panel of 203 kinases [2], 100%; at panel of 203 kinases [3] it was 0%; at panel of 203 kinases [4], 94.4%; at panel of 203 kinases [5] it was 100%.

On to `Clc1ccc(Nc2ncc(-c3ccccc3)s2)cc1` [Compound 10], for which the inhibition at 10 µM on panel of 203 kinases [1], at panel of 203 kinases [2], on panel of 203 kinases [3], on panel of 203 kinases [4] and on panel of 203 kinases [5] was 0% in each case.

As for `c1ccc(COc2cccc(-c3ccnc4[nH]ccc34)c2)cc1` [Compound 9], the inhibition at 10 µM on panel of 203 kinases [1], on panel of 203 kinases [2], at panel of 203 kinases [3], on panel of 203 kinases [4] and on panel of 203 kinases [5] was 0% throughout.

`Fc1cccc(COc2ccc(Nc3ncnc4c3CN(CCN3CCOCC3)CC4)cc2Cl)c1` [Compound 6]: the inhibition at 10 µM on panel of 203 kinases [1], at panel of 203 kinases [2], on panel of 203 kinases [3], on panel of 203 kinases [4] and at panel of 203 kinases [5] was 0% in each case.

Regarding `C[C@@H](Oc1cc(-c2cnc3ccccn23)sc1C(N)=O)c1ccccc1Cl` [Compound 8], the inhibition at 10 µM on panel of 203 kinases [1] is 0%; at panel of 203 kinases [2] it was 0%; at panel of 203 kinases [3], 0%; on panel of 203 kinases [4] it was 81%; on panel of 203 kinases [5] it was 0%.

In the case of `CN1CCN(c2ccc(Nc3nccc(-c4cnn5ncccc45)n3)cc2C#N)CC1` [Compound 1], the inhibition at 10 µM at panel of 203 kinases [1] turned out to be 80%; at panel of 203 kinases [2], 0%; on panel of 203 kinases [3], 0%; on panel of 203 kinases [4] it was 100%; at panel of 203 kinases [5], 0%.

On to `Cc1ccc(O)cc1N(C)c1ccnc(Nc2cccc(S(N)(=O)=O)c2)n1` [Compound 4], for which the inhibition at 10 µM turned out to be 98% on panel of 203 kinases [1]; 100% at panel of 203 kinases [2]; 0% at panel of 203 kinases [3]; 99.2% on panel of 203 kinases [4]; 100% on panel of 203 kinases [5].

In the case of `COc1ccc(Nc2nccc(-c3cnn4ncccc34)n2)cc1` [Compound 2], the inhibition at 10 µM at panel of 203 kinases [1] amounted to 0%; at panel of 203 kinases [2] it was 0%; on panel of 203 kinases [3], 0%; on panel of 203 kinases [4], 89.9%; on panel of 203 kinases [5], 65.1%.

For the molecule `Nc1ncc2c(-c3ccncc3)c[nH]c2n1` [Compound 11], the inhibition at 10 µM was found to be 84.2% on panel of 203 kinases [1]; 62.6% at panel of 203 kinases [2]; 0% at panel of 203 kinases [3]; 86.8% at panel of 203 kinases [4]; 0% on panel of 203 kinases [5].

Consider `COc1cc(Nc2nccc(-c3sc(N)nc3-c3cccc(NC(=O)c4c(F)cccc4F)c3)n2)cc(OC)c1OC` [Compound 7], for which the inhibition at 10 µM amounted to 99.3% at panel of 203 kinases [1]; 99.4% at panel of 203 kinases [2]; 0% at panel of 203 kinases [3]; 99.9% at panel of 203 kinases [4]; 100% on panel of 203 kinases [5].

The term inhibition denotes the drop in the measured response relative to a control, in per cent.
